In assay [1] the test system is A375. As to the kind of experiment: cells. Set-up: Inhibition of cell proliferation, 5 days. As to conditions: Homo sapiens, A-375, 120 h; read-out: IC50 Proliferation A375. The source says: (§1) Next, we set out to test the ability of a single pan-KRAS degrading molecule, compound 4, to selectively suppress oncogenic signaling and proliferation in cancer cell lines driven by diverse KRAS mutants. To this end, we first confirmed degradation of KRAS by compound 4 in KRAS-dependent (GP2d, SW620 and NCI-H358 expressing KRAS^G12D, - G12V or -G12C, respectively) as well as in KRAS independent (A-375, HEK293) cell lines (Fig. 3A, fig. S4A). […] Both inhibition and degradation repressed the established markers of MAPK signaling pERK (fig. S4B-D) and DUSP6 (Fig. 3B, fig. S4E) in KRAS dependent cell lines. […] Neither degradation nor inhibition had appreciable antiproliferative effects in the KRAS independent cell lines A-375 and HEK293 (Fig. 3C, fig. S4F). […] Pan-KRAS degradation impacts MAPK signaling and cancer cell proliferation.

Assay [2] concerns GP2d. Description: cells. Set-up: Inhibition of cell proliferation, 5 days. The following applies: 120 h, read-out: IC50 Proliferation GP2d.
Description: as §1

The test system of assay [3] is HEK293. As to the kind of experiment: cells. Set-up: Inhibition of cell proliferation, 5 days. As to conditions: Homo sapiens, HEK293, 120 h; read-out: IC50 Proliferation HEK293.
Description: as §1

The test system of assay [4] is NCI-H358. As to the kind of experiment: cells. Also noted: Inhibition of cell proliferation, 5 days. The following applies: Homo sapiens, NCI-H358, 120 h; read-out: IC50 Proliferation NCI-H358.
Description: as §1

Assay [5] has as its system SW620. Description: cells. Also noted: Inhibition of cell proliferation, 5 days. The following applies: Homo sapiens, SW-620, 120 h; read-out: IC50 Proliferation SW620.
Description: as §1

The target of assay [6] is T1, KRAS^WT (Homo sapiens, UniProt P01116).
T1 construct: endogenous wild type
T1 sequence (P01116 whole entry): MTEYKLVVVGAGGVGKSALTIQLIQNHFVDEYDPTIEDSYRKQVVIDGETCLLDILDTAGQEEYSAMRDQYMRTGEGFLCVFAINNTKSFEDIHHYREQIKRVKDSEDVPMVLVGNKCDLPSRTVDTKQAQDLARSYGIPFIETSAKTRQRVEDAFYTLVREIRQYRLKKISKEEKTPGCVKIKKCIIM
Description: cell-based. Set-up: KRAS degradation by capillary electrophoresis immunodetection. As to conditions: A-375; read-out: Dmax 24 h A375 [%]. The method, then:
(§2) Protein Detection by Capillary Electrophoresis Cells (50 000) were seeded the day before treatment into 96-well clear-flat bottom plates and incubated overnight (37 °C, humidified tissue culture incubator, 5% CO2). Compounds were added from DMSO stock solution using a digital dispenser and cells are incubated at 37 °C as specified (24 hours for KRAS degradation, 6 hours for determination of pERK levels). At the end of the incubation, medium was removed, cells washed with ice cold PBS, PBS removed and 50 µL lysis buffer (Meso Scale Discovery #R60TX-2) supplemented with 1:100 protease inhibitor solution, 1:100 phosphatase inhibitor I, 1:100 phosphatase inhibitor II (Meso Scale Discovery #R70AA-1), 0.5 µL/mL Benzonase (Novagen #70664-3) and 10 mM dithiothreitol added to each well. Plates with lysis buffer were immediately transferred to -80 °C freezer for at least 2 hours and then thawed on ice. Lysates were transferred to a 96 well V-bottom plate and insoluble debris was pelleted by centrifugation for 20 min. at 4 000 rpm. 40 µL of the supernatant were transferred to a fresh Eppendorf PCR plate. Analysis of protein levels was conducted using the Wes System, ProteinSimple (https://www.bio-techne.com/) as specified by the manufacturer. Briefly, Wes Master Mix (12-230 kDa WES Separation Module, 8 × 25 capillary cartridges, ProteinSimple #SM-W004) and molecular weight markers were prepared as specified in the manufacturer’s recommendations. To detect primary antibodies, anti-rabbit (Protein Simple #DM-001) or anti-mouse (Protein Simple #DM-002) detection modules were used. 7.2 µL lysate + 1.8 µL master mix were combined and heated to 95 °C for 5 min. […] Next, we set out to test the ability of a single pan-KRAS degrading molecule, compound 4, to selectively suppress oncogenic signaling and proliferation in cancer cell lines driven by diverse KRAS mutants. To this end, we first confirmed degradation of KRAS by compound 4 in KRAS-dependent (GP2d, SW620 and NCI-H358 expressing KRAS^G12D, - G12V or -G12C, respectively) as well as in KRAS independent (A-375, HEK293) cell lines (Fig. 3A, fig. S4A). […] Both inhibition and degradation repressed the established markers of MAPK signaling pERK (fig. S4B-D) and DUSP6 (Fig. 3B, fig. S4E) in KRAS dependent cell lines. […] Neither degradation nor inhibition had appreciable antiproliferative effects in the KRAS independent cell lines A-375 and HEK293 (Fig. 3C, fig. S4F).

Assay [7] relates to A375. As to the kind of experiment: cells. Also noted: pERK levels by capillary electrophoresis. The following applies: Homo sapiens, A-375, 6 h. The method, then:
(§3) Protein Detection by Capillary Electrophoresis Cells (50 000) were seeded the day before treatment into 96-well clear-flat bottom plates and incubated overnight (37 °C, humidified tissue culture incubator, 5% CO2). Compounds were added from DMSO stock solution using a digital dispenser and cells are incubated at 37 °C as specified (24 hours for KRAS degradation, 6 hours for determination of pERK levels). At the end of the incubation, medium was removed, cells washed with ice cold PBS, PBS removed and 50 µL lysis buffer (Meso Scale Discovery #R60TX-2) supplemented with 1:100 protease inhibitor solution, 1:100 phosphatase inhibitor I, 1:100 phosphatase inhibitor II (Meso Scale Discovery #R70AA-1), 0.5 µL/mL Benzonase (Novagen #70664-3) and 10 mM dithiothreitol added to each well. Plates with lysis buffer were immediately transferred to -80 °C freezer for at least 2 hours and then thawed on ice. Lysates were transferred to a 96 well V-bottom plate and insoluble debris was pelleted by centrifugation for 20 min. at 4 000 rpm. 40 µL of the supernatant were transferred to a fresh Eppendorf PCR plate. Analysis of protein levels was conducted using the Wes System, ProteinSimple (https://www.bio-techne.com/) as specified by the manufacturer. Briefly, Wes Master Mix (12-230 kDa WES Separation Module, 8 × 25 capillary cartridges, ProteinSimple #SM-W004) and molecular weight markers were prepared as specified in the manufacturer’s recommendations. To detect primary antibodies, anti-rabbit (Protein Simple #DM-001) or anti-mouse (Protein Simple #DM-002) detection modules were used. 7.2 µL lysate + 1.8 µL master mix were combined and heated to 95 °C for 5 min. Th

Assay [8] has as its system GP2d. Description: cells. Set-up: pERK levels by capillary electrophoresis. The following applies: GP2d, 6 h. The method, then:
as §3

In assay [9] the test system is HEK293. Description: cells. Set-up: pERK levels by capillary electrophoresis. As to conditions: Homo sapiens, HEK293, 6 h. The method, then:
as §3

Assay [10] concerns SW620. As to the kind of experiment: cells. The following applies: Homo sapiens, SW-620, 6 h. Also noted: pERK levels by capillary electrophoresis. The method, then:
as §3

In assay [11] the test system is GP2d. As to the kind of experiment: cells. As to conditions: GP2d, 6 h; read-out: IC50 DUSP6. Set-up: DUSP6 modulation. From the text:
(§4) Next, we set out to test the ability of a single pan-KRAS degrading molecule, compound 4, to selectively suppress oncogenic signaling and proliferation in cancer cell lines driven by diverse KRAS mutants. To this end, we first confirmed degradation of KRAS by compound 4 in KRAS-dependent (GP2d, SW620 and NCI-H358 expressing KRAS^G12D, - G12V or -G12C, respectively) as well as in KRAS independent (A-375, HEK293) cell lines (Fig. 3A, fig. S4A). […] Both inhibition and degradation repressed the established markers of MAPK signaling pERK (fig. S4B-D) and DUSP6 (Fig. 3B, fig. S4E) in KRAS dependent cell lines. […] Neither degradation nor inhibition had appreciable antiproliferative effects in the KRAS independent cell lines A-375 and HEK293 (Fig. 3C, fig. S4F).

Assay [12] concerns SW620. As to the kind of experiment: cells. Also noted: DUSP6 modulation. The following applies: Homo sapiens, SW-620, 6 h; read-out: IC50 DUSP6.
Description: as §4

Assay [13] has as its target KRAS^G12D (Homo sapiens, UniProt P01116, G12D). As to the kind of experiment: cell-based. Also noted: endogenous; KRAS degradation by capillary electrophoresis immunodetection. The following applies: GP2d; read-out: Dmax 24 h GP2d [%]. How it is done:
as §2

The target of assay [14] is KRAS^G12V (Homo sapiens, UniProt P01116, G12V). As to the kind of experiment: cell-based. Also noted: endogenous; KRAS degradation by capillary electrophoresis immunodetection. As to conditions: SW-620; read-out: Dmax 24 h SW620 [%]. The method, then:
as §2

In assay [15] the target is T2, KRAS (Homo sapiens, UniProt P01116, C118S/G12V).
T2 construct: residues 1-169, C118S background; His6 tag removed, E. coli; biotinylated for SPR
T2 sequence (P01116 1-169 G12V/C118S): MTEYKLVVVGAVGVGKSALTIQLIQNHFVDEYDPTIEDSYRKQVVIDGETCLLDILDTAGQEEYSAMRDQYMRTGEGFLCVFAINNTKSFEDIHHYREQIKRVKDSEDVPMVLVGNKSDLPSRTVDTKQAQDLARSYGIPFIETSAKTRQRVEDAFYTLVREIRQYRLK
As to the kind of experiment: SPR, biotinylated KRAS immobilised. It counts as binding. Background: Surface plasmon resonance follows binding to a sensor surface in real time, without labels.

The subject of assay [16] is NCI-H358. As to the kind of experiment: cells. Set-up: pERK levels by capillary electrophoresis. The following applies: Homo sapiens, NCI-H358, 6 h. How it is done:
as §3

The subject of assay [17] is NCI-H358. As to the kind of experiment: cells. Set-up: DUSP6 modulation. The following applies: Homo sapiens, NCI-H358, 6 h; read-out: IC50 DUSP6.
Description: as §4

The structures appear in SMILES notation. pIC50, pKd: −log10 of the molar value. Where two headings read alike, the source gives them in different places. Some results are limits rather than exact numbers.

By Dmax is commonly meant the greatest extent of degradation seen. The term pKd denotes the Kd on a negative log10 scale, so that one unit is a factor of ten. Read a high pKd as a low Kd.

Sequence of KRAS^G12V (P01116 whole entry G12V): as the sequence (P01116 whole entry) above, with G12V counted along it
Sequence of KRAS^G12D (P01116 whole entry G12D): as the sequence (P01116 whole entry) above, with G12D counted along it

Take `C[C@H](Oc1ccnc(-c2noc([C@@]3(C)CCCc4sc(N)c(C#N)c43)n2)n1)[C@@H]1CCCN1C` [BI-2865]: the pIC50 in assay [1] is < 6.00; in assay [2], 6.60; in assay [3], < 6.00; in assay [4] it was 6.21; in assay [5], 6.68.
As to `C#Cc1c(F)ccc2cc(O)cc(-c3ncc4c(N5C[C@H]6CC[C@@H](C5)N6)nc(OC[C@@]56CCCN5C[C@H](F)C6)nc4c3F)c12` [MRTX1133], the Dmax in assay [6], in assay [13] and in [14] was < 15% throughout. Also, the pIC50 was 8.62 in assay [2]; < 6.00 in assay [7]; 8.89 in assay [8]; < 6.00 in [9]; < 6.00 in assay [10]; 10.00 in assay [11]. Besides, in [12], the pIC50 was 6.51.
`C[C@H]1CNCCCN1c1nccc(-c2noc([C@@]3(C)CCCc4sc(N)c(C#N)c43)n2)n1` [compound 1]: in assay [15], the pKd was 7.60.
For the compound `C=CC(=O)N1CCN(c2nc(=O)n(-c3c(C)ccnc3C(C)C)c3nc(-c4c(O)cccc4F)c(F)cc23)[C@@H](C)C1` [sotorasib], the pIC50 in [4] was 7.91; in assay [16] it was 7.54; in assay [17], 8.25.

Values taken from article doi:10.1101/2023.10.24.563163v2, “Targeting cancer with small molecule pan-KRAS degraders” (biorxiv, 2024).
